Reference: BigSolDB 2.1

`NC(N)=S` gave a solubility (mole fraction) (in ethanol, 283.15 K) of 0.0185, a solubility (mole fraction) (in ethanol, 288.15 K) of 0.0206 and a solubility (mole fraction) (in ethanol, 293.15 K) of 0.0222. It also gave a solubility (mole fraction) (in ethanol, 298.15 K) of 0.025, a solubility (mole fraction) (in ethanol, 303.15 K) of 0.027 and a solubility (mole fraction) (in ethanol, 308.15 K) of 0.0315. The solubility (mole fraction) (in ethanol, 313.15 K) was 0.0348, the solubility (mole fraction) (in methanol, 283.15 K) was 0.0421 and the solubility (mole fraction) (in methanol, 288.15 K) was 0.046. It also gave a solubility (mole fraction) (in methanol, 293.15 K) of 0.0501, a solubility (mole fraction) (in methanol, 298.15 K) of 0.054 and a solubility (mole fraction) (in methanol, 303.15 K) of 0.061. For the same compound, the solubility (mole fraction) (in methanol, 308.15 K) was 0.065, the solubility (mole fraction) (in methanol, 313.15 K) was 0.0744 and the solubility (mole fraction) (in n-propanol, 283.15 K) was 0.0185. It also gave a solubility (mole fraction) (in n-propanol, 288.15 K) of 0.0206, a solubility (mole fraction) (in n-propanol, 293.15 K) of 0.0222 and a solubility (mole fraction) (in n-propanol, 298.15 K) of 0.025. The solubility (mole fraction) (in n-propanol, 303.15 K) was 0.027, the solubility (mole fraction) (in n-propanol, 308.15 K) was 0.0315 and the solubility (mole fraction) (in n-propanol, 313.15 K) was 0.0348.
